Measured values reported in patent US11246961B2, “Engineered scaffolds for vascularized tissue repair” (The Regents of the University of California, priority 2016, dated 2022).
“Also recorded” adds a separate entry of the source.

Assays:
[1] = test system: THP-1 monocytes; experiment: on-bead whole cell binding assay, THP-1 monocytes; assay type: cell-based; conditions: 10 minutes, 30 minutes or 2 hours
Source text: (§1) Human coronary artery endothelial cells (HCAECs) were purchased from ATCC. Human cardiac microvascular endothelial cells (HMVECs) were purchased from Lonza. THP-1 monocytes were obtained from Dr. Pamela Lein (University of California, Davis). The myeloid leukemia K562 cells that have been transfected with human integrin αvβ3 gene (αvβ3-K562 cells) were provided by Dr. Yoshikazu Takada and the K562 cells transfected with human integrin αIIbβ3 gene (αIIb3-K562 cells) were provided Dr. Jennifer Cochran (Stanford University)
(§2) HECFCs, HCAECs, HMVECs and THP-1 monocytes were cultured in their respective growth medium as described in Example 1. For cell bead-binding assay, 6×10^5 HECFCs, HCAECs, HMVECs or THP-1 monocytes in 2 mL of their respective culture medium were added to an ultra-low attachment 35-mm petri dish (Corning Incorporated) followed by resin beads (Lam et al. (1991) Nature 354:82). The dishes were incubated in a shaking incubator at 37° C., 5% CO2 for various time points at 40 rpm. For platelet bead-binding assay, the platelets isolated as described in Example 1 were added to an ultra-low attachment 35-mm petri dish and incubated with the resin beads in the shaking incubator as described for the cell-bead binding assy. Phase contrast images were taken at different time points using an Olympus IX81 microscope. […]

[2] = test system: THP-1 monocytes; experiment: flow cytometry ligand-cell binding, THP-1 monocytes; conditions: biotinylated ligand 1 μM
Protocol: FIG. 10 presents flow cytometry data from an assay of binding affinity of LXW7 and GRGD (SEQ ID NO: 1) to different cell types. Tests included EPCs/ECs from different sources, including HECFCs (A), HCAECs (B), HMVECs (C), and THP-1 monocytes (D), Platelets (E), as well as K562 cells engineered to highly express αvβ3 (αvβ3-K562, F), and αIIbβ3 (αIIbβ3-K562, G). Cells were incubated with the LXW7-bio, GRGD-bio (SEQ ID NO: 1), or D-Biotin peptide and subsequently incubated with streptavidin-phycoerythrin. Flow cytometry analysis was performed to determine the binding affinity of the ligands. Samples treated with D-biotin were used as negative controls.
LXW7-bio (1 μM) was incubated with 3×10^5 HECFCs, HCAECs, HMVECs, αvβ3-K562 and αIIbβ3-K562 cells and THP-1 monocytes and 1×10^8 platelets in binding buffer (HEPES containing 10% FBS) on ice for 30 minutes. The samples were washed three times with DPBS containing 1% FBS and incubated with 2 μg/ml of streptavidin-phycoerythrin on ice for 30 minutes and then washed with DPBS. Samples were analyzed on a BD Fortessa LSR Cell Analyzer and further data analysis and gating were performed using FlowJo software (Treestar, Inc.).

[3] = test system: HCAECs; experiment: attachment assay on ligand treated culture surfaces, HCAECs; assay type: cell-based, human; conditions: 10 minutes
Source text: Ligands LXW7, LXY30, and LLP2A were synthesized as in U.S. Pat. No. 9,073,974. Biotinylated LXW7 (LXW7-bio) and biotinylated GRGD (GRGD-bio) (SEQ ID NO: 1) were synthesized using established solid phase peptide synthesis protocols (Xiao et al. (2010) Mol Cancer Therapeutics 9:2714). Peptide-bio was designed to have biotin attached to the side chain of Lys, with two hydrophilic linkers between peptide and Lys (biotin). To modify culture surface with ligands, target culture wells in a 24-well plate were coated with 500 μL of 20 μg/mL Avidin (Thermo Fisher Scientific), and incubated for 1 hour at 37° C. Avidin coated wells were rinsed three times with DPBS and were treated with 500 μL molar equivalents (2 μM) of D-biotin (Thermo Fisher Scientific), LXW7-bio, or GRGD-bio (SEQ ID NO: 1). After 1 hour, the wells were washed three times with DPBS and blocked with 1% bovine serum albumin (BSA; Thermo Fisher Scientific) for 1 hour. After the wells were rinsed three times with DPBS, for cell attachment assay, 5×10^4 HCAECs and THP-1 monocytes suspended in the respective maintenance medium were added to the wells and incubated for 10 minutes or 16 hours at 37° C., 5% CO2, respectively. After each time point the wells were washed three times with DPBS, and the adhered cells were fixed in 10% formalin (Azer Scientific) for 20 minutes. For platelets attachment assay, the PRP was centrifuged, and the platelet pellet was resuspended in 1% BSA with 2 mM CaCl2 and 1 mM MgCl2 to achieve a final concentration of 1×10^8 platelets/mL, added to the wells at a density of 5×10^7 platelets/cm^2, and incubated for 16 hours at 37° C., 5% CO2. The wells were washed three times with DPBS, and the adhered cells were fixed in 10% formalin for 20 min. The HCAECs wells were washed with DPBS again and blocked for 1 hour with 1% BSA. An additional wash was performed, and the plate was incubated overnight with mouse anti-PECAM-1 antibody (1:100; Abcam) in 1% BSA at 4° C. […] Five images were randomly taken from each sample and quantification of images was performed using the Image J software (NIH).

[4] = test system: HMVECs; experiment: on-bead whole cell binding assay, HMVECs; assay type: cell-based, human; conditions: 10 minutes, 30 minutes or 2 hours
Source text: as §1, §2

For cGRGDdvc [LXW7], the “attachment of THP-1 monocytes to beads displaying LXW7” value [1] was “did not support effective attachment of THP-1 monocytes”, the “binding to THP-1 monocytes by flow cytometry” value [2] was “did not bind to THP-1 monocytes” and the “attachment of HCAECs on ligand treated surface” value ([3]; avidin + biotinylated ligand 2 μM) was “bound to both LXW7 and GRGD”. The “number of attached HCAECs, LXW7 vs GRGD surface” value ([3]; quantified) was “attracted more HCAECs than the GRGD-modified” and the “attachment of HMVECs to beads displaying LXW7” value [4] was “efficiently supported attachment of EPCs/ECs from different sources; also recorded: efficiently supported EPC/EC attachment”.
